17 molecules from patent US20060154970A1, “Alanines compounds, method of preparing them and their use” (priority 2003, published 2006) can be followed below.

Structures are written as SMILES.

The test system of one data set is 3T3-L1 preadipocytes. In words: Insulin-sensitizing activity in 3T3-L1 preadipocyte model, triglyceride accumulation in cells as indication of differentiation. As to conditions: for activation at 0.01 µM / activation at 0.1 µM / activation at 1 µM: Mus musculus, 3T3-L1, read-out: The Percentage of Triglyceride Increased in 3T3-L1 Cells; for activation at 0.01 µM / activation at 0.1 µM / activation at 1 µM / The Percentage of Triglyceride Increased in 3T3-L1 Cells: average data in 3 pores (Rosiglitazone: n = 22, mean ± SE); for insulin-sensitizing activity (in words): summary of table 2. The format is cell-based. Here is the method: Insulin-sensitizing agents can promote the differentiation of preadipocytes toward adipocytes, thus insulin-sensitizing agents could be identified according to the differentiation of pre-adipocytes. Following the methods reported in the literature [Kletzin B F. Mol. Pharm. 1991, 41, 393], the insulin-sensitizing activities of the compounds of formula (I) of the present invention were evaluated in 3T3-L1 pradipocyte model with triglyceride accumulation in cells as the indication of differentiation.
The 3T3-L1 preadipocytes were incubated in DMEM (Dulbecco's Modified Eagle's Medium) containing 10% NBS (newborn calf serum) and subcultured every 3 days. The calls were transferred to 24-pore plates, and after the pores were filled completely the cells were treated with IBMX (isobutylmethylxanthine) (0.5 mmol/L), DEX (dexamethasone) (1 μmol/L) and insulin (1.0 μmol/L) for 48 h. Different amounts of test compounds were incubated with the cells until the end of the experiment. Cells were collected and the contents of triglyceride and protein therein were determined by colorimetry. Enhancements of triglyceride in cells after drug-administrating were calculated.
The positive control group was rosiglitazone, and the solvent control group was a culturing medium containing 0.1% of DMSO. The enhancement of triglyceride in cells was determined in three different concentrations (0.01, 0.1, 1 μmol/L) of the tested compounds.

For the molecule `COc1ccc(C[C@H](NC(=O)[C@H]2CC[C@H](C(C)C)CC2)C(=O)O)cc1` [Compound 15, (2S)-2-[N-(trans-4-isopropylcyclohexylcarbonyl)amino]-3-(4-methoxyphenyl)propionic acid], the melting point – broadly, the temperature of the solid-liquid transition – lay within 149 to 151 °C. Besides, the activation at 0.01 µM with 3T3-L1 preadipocytes (concentration 0.01 μmol/L) is -0.21%. Also, in the data set on 3T3-L1 preadipocytes (concentration 0.1 μmol/L), the activation at 0.1 µM stood at 5.99%. In the data set with 3T3-L1 preadipocytes (concentration 1 μmol/L), the activation at 1 µM was 5.04%.
For `CC(C)[C@H]1CC[C@H](C(=O)N[C@@H](Cc2ccc(OCc3ccc(C(F)(F)F)cc3)cc2)C(=O)O)CC1` [Compound 7, (2S)-2-[N-(trans-4-isopropylcyclohexylcarbonyl)amino]-3-[4-(4-trifluoromethylbenzyloxy)phenyl]propionic acid] the same measures were 171 to 172 °C, 11.8%, 5.8% and 4.68%.
The molecule `CCOc1ccc(C[C@H](NC(=O)[C@H]2CC[C@H](C(C)C)CC2)C(=O)O)cc1` [Compound 13, (2S)-2-[N-(trans-4-isopropylcyclohexylcarbonyl)amino]-3-(4-ethoxyphenyl)propionic acid] returned a melting point of 168 to 170 °C. Further, the activation at 0.01 µM in the data set with 3T3-L1 preadipocytes (concentration 0.01 μmol/L) worked out at 1.89%. In addition, the activation at 0.1 µM in the data set on 3T3-L1 preadipocytes (concentration 0.1 μmol/L) is 1.83%. For the same molecule, the activation at 1 µM with 3T3-L1 preadipocytes (concentration 1 μmol/L) is -4.74%.
Regarding `CC(C)[C@H]1CC[C@H](C(=O)N[C@H](Cc2ccc(OCCN(C)c3nc4ccccc4o3)cc2)C(=O)O)CC1` [Compound 4, (2R)-2-[N-(trans-4-isopropylcyclohexylcarbonyl)amino]-3-[4-[2-[N-methyl-N-(2-benzoxazolyl)amino]ethoxy]phenyl]propionic acid], the melting point was 179 to 180 °C. For the same molecule, in the data set on 3T3-L1 preadipocytes (concentration 0.01 μmol/L), the activation at 0.01 µM was -4.77%. The activation at 0.1 µM in the data set with 3T3-L1 preadipocytes (concentration 0.1 μmol/L) turned out to be 5.05%. Moreover, the activation at 1 µM in the data set with 3T3-L1 preadipocytes (concentration 1 μmol/L) stood at 11%.
`Cc1oc(-c2ccccc2)nc1CCOc1ccc(C[C@@H](NC(=O)[C@H]2CC[C@H](C(C)C)CC2)C(=O)O)cc1` [Compound 2, (2R)-2-[N-(trans-4-isopropylcyclohexylcarbonyl)amino]-3-[4-[2-(5-methyl-2-phenyl-4-oxazolyl)ethoxy]phenyl]propionic acid]: the melting point was 151 to 153 °C (dec.). Also, the activation at 0.01 µM in the data set on 3T3-L1 preadipocytes (concentration 0.01 μmol/L) was found to be 10.7%. Further, the activation at 0.1 µM in the data set on 3T3-L1 preadipocytes (concentration 0.1 μmol/L) was 16.5%. In addition, in the data set with 3T3-L1 preadipocytes (concentration 1 μmol/L), the activation at 1 µM came out at 30.7%. The “insulin-sensitizing activity (in words)” value in the data set on 3T3-L1 preadipocytes is “stronger insulin-sensitizing activity”.
In turn, `CCOc1ccc(C[C@@H](NC(=O)[C@H]2CC[C@H](C(C)C)CC2)C(=O)O)cc1` [Compound 14, (2R)-2-[N-(trans-4-isopropylcyclohexylcarbonyl)amino]-3-(4-ethoxyphenyl)propionic acid] registered a melting point of 168 to 170 °C.
Molecule `CC(C)[C@H]1CC[C@H](C(=O)N[C@H](Cc2ccc(O)cc2)C(=O)O)CC1` [Compound 18, (2R)-2-[N-(trans-4-isopropylcyclohexylcarbonyl)amino]-3-(4-hydroxyphenyl)propionic acid] showed a melting point of 156 to 157 °C.
As to `CCCCOc1ccc(C[C@H](NC(=O)[C@H]2CC[C@H](C(C)C)CC2)C(=O)O)cc1` [Compound 11, (2S)-2-[N-(trans-4-isopropylcyclohexylcarbonyl)amino]-3-(4-butoxyphenyl)propionic acid], the activation at 0.01 µM in the data set with 3T3-L1 preadipocytes (concentration 0.01 μmol/L) turned out to be 0%. Besides, the activation at 0.1 µM in the data set with 3T3-L1 preadipocytes (concentration 0.1 μmol/L) was 0.36%. Also, in the data set on 3T3-L1 preadipocytes (concentration 1 μmol/L), the activation at 1 µM turned out to be 2.23%.
`CC(C)[C@H]1CC[C@H](C(=O)N[C@H](Cc2ccc(OCc3ccc(C(F)(F)F)cc3)cc2)C(=O)O)CC1` [Compound 8, (2R)-2-[N-(trans-4-isopropylcyclohexylcarbonyl)amino]-3-[4-(4-trifluoromethylbenzyloxy)phenyl]propionic acid] registered a melting point of 171 to 172 °C.
With `CC(C)[C@H]1CC[C@H](C(=O)N[C@@H](Cc2ccc(OCc3ccccc3)cc2)C(=O)O)CC1` [Compound 9, (2S)-2-[N-(trans-4-isopropylcyclohexylcarbonyl)amino]-3-(4-benzyloxyphenyl)propionic acid], the melting point is 140 to 142 °C (dec.). Moreover, the activation at 0.01 µM with 3T3-L1 preadipocytes (concentration 0.01 μmol/L) amounted to 6%. Also, the activation at 0.1 µM in the data set with 3T3-L1 preadipocytes (concentration 0.1 μmol/L) came out at 3.35%. In addition, in the data set with 3T3-L1 preadipocytes (concentration 1 μmol/L), the activation at 1 µM was -0.69%.
For the molecule `CC(C)[C@H]1CC[C@H](C(=O)N[C@@H](Cc2ccc(O)cc2)C(=O)O)CC1` [Compound 17, (2S)-2-[N-(trans-4-isopropylcyclohexylcarbonyl)amino]-3-(4-hydroxyphenyl)propionic acid], the melting point was 156 to 157 °C. The activation at 0.01 µM in the data set on 3T3-L1 preadipocytes (concentration 0.01 μmol/L) stood at 0.22%. Further, the activation at 0.1 µM in the data set on 3T3-L1 preadipocytes (concentration 0.1 μmol/L) turned out to be 10.8%. The activation at 1 µM in the data set with 3T3-L1 preadipocytes (concentration 1 μmol/L) stood at 0.85%.
As for `CC(C)[C@H]1CC[C@H](C(=O)N[C@@H](Cc2ccc(OCCN(C)c3nc4ccccc4o3)cc2)C(=O)O)CC1` [Compound 3, (2S)-2-[N-(trans-4-isopropylcyclohexylcarbonyl)amino]-3-[4-[2-[N-methyl-N-(2-benzoxazolyl)amino]ethoxy]phenyl]propionic acid], the melting point was 179 to 180 °C (dec.). For the same molecule, the activation at 0.01 µM with 3T3-L1 preadipocytes (concentration 0.01 μmol/L) is -0.37%. Moreover, the activation at 0.1 µM in the data set on 3T3-L1 preadipocytes (concentration 0.1 μmol/L) is 6.7%. Also, in the data set with 3T3-L1 preadipocytes (concentration 1 μmol/L), the activation at 1 µM turned out to be 20%.
`CCCCOc1ccc(C[C@@H](NC(=O)[C@H]2CC[C@H](C(C)C)CC2)C(=O)O)cc1` [Compound 12, (2R)-2-[N-(trans-4-isopropylcyclohexylcarbonyl)amino]-3-(4-butoxyphenyl)propionic acid] registered a melting point of 120 to 121 °C.
Regarding `CC(C)[C@H]1CC[C@H](C(=O)N[C@@H](Cc2ccc(OCCN(C)c3ccccn3)cc2)C(=O)O)CC1` [Compound 19, (2S)-2-[N-(trans-4-isopropylcyclohexylcarbonyl)amino]-3-[4-[2-[N-methyl-N-(2-pyridyl)amino]ethoxyl]phenyl]propionic acid], the melting point was 158 to 160 °C. Moreover, in the data set with 3T3-L1 preadipocytes (concentration 0.01 μmol/L), the activation at 0.01 µM is -1.46%. In addition, the activation at 0.1 µM with 3T3-L1 preadipocytes (concentration 0.1 μmol/L) was -2.24%. Besides, in the data set on 3T3-L1 preadipocytes (concentration 1 μmol/L), the activation at 1 µM was -1.62%.
Consider `Cc1oc(-c2ccccc2)nc1CCOc1ccc(C[C@H](NC(=O)[C@H]2CC[C@H](C(C)C)CC2)C(=O)O)cc1` (relative stereo) [Compound 1, (2S)-2-[N-(trans-4-isopropylcyclohexylcarbonyl)amino]-3-[4-[2-(5-methyl-2-phenyl-4-oxazole)ethoxy]phenyl]propionic acid], for which the “The Percentage of Triglyceride Increased in 3T3-L1 Cells” value with 3T3-L1 preadipocytes (concentration 0.01 μmol/L) was determined as 1.56%; in the data set on 3T3-L1 preadipocytes (concentration 0.1 μmol/L) it was 21.18%; in the data set with 3T3-L1 preadipocytes (concentration 1 μmol/L), 47.09%. Moreover, the “insulin-sensitizing activity (in words)” value with 3T3-L1 preadipocytes is reported as “stronger insulin-sensitizing activity”.
For the molecule `CC(C)[C@H]1CC[C@H](C(=O)N[C@@H](Cc2ccc(OCCn3ccc4ccccc43)cc2)C(=O)O)CC1` [Compound 5, (2S)-2-[N-(trans-4-isopropylcyclohexylcarbonyl)amino]-3-[4-[2-(1-indolyl)ethoxy]phenyl]propionic acid], the activation at 0.01 µM in the data set on 3T3-L1 preadipocytes (concentration 0.01 μmol/L) was -1.54%. Besides, the activation at 0.1 µM in the data set with 3T3-L1 preadipocytes (concentration 0.1 μmol/L) was -4.64%. In addition, in the data set with 3T3-L1 preadipocytes (concentration 1 μmol/L), the activation at 1 µM is -6.92%.
With `CC(C)[C@H]1CC[C@H](C(=O)N[C@H](Cc2ccc(OCc3ccccc3)cc2)C(=O)O)CC1` [Compound 10, (2R)-2-[N-(trans-4-isopropylcyclohexylcarbonyl)amino]-3-(4-benzyloxyphenyl)propionic acid], the melting point is 140 to 142 °C (dec.).
